Measured values as given in US20170227545A1, “REACTIVITY-BASED SCREENING FOR NATURAL PRODUCT DISCOVERY” (THE BOARD OF TRUSTEES OF THE UNIVERSITY OF ILLINOIS, priority 2014, published 2017).
≈ marks a conversion by molar mass, not a printed value. Where two headings read alike, the source gives them in different places.

Legend:
Format in all cases: cell-based
[1] = tested on: Bacillus anthracis strain Sterne; experiment: microbe, parasite or virus in culture
[2] = tested on: Bacillus subtilis strain 168; experiment: Antibiotic activity, microbroth dilution MIC
[3] = tested on: Enterococcus faecalis U503 (vancomycin-resistant); experiment: Antibiotic activity, microbroth dilution MIC
[4] = tested on: Listeria monocytogenes strain 4b F2365; experiment: Antibiotic activity, microbroth dilution MIC
[5] = tested on: Staphylococcus aureus USA300 (methicillin-resistant); experiment: Antibiotic activity, microbroth dilution MIC
[6] = tested on: E. coli MC4100; experiment: Antibiotic activity, microbroth dilution MIC; conditions: 37° C. 12 h
[7] = tested on: Neisseria sicca ATCC 29256; experiment: Antibiotic activity, microbroth dilution MIC
[8] = tested on: Pseudomonas putida KT2440; experiment: Antibiotic activity, microbroth dilution MIC
[9] = tested on: Aspergillus niger; experiment: Antifungal activity, microbroth dilution MIC
[10] = tested on: Fusarium virguliforme; experiment: Antifungal activity, microbroth dilution MIC
[11] = tested on: Saccharomyces cerevisiae; experiment: Antifungal activity, microbroth dilution MIC
[12] = tested on: Talaromyces stipitatus; experiment: Antifungal activity, microbroth dilution MIC
[13] = tested on: Gram-positive (Firmicutes) bacteria; conditions: several Gram-positive bacteria, result in words
[14] = tested on: Gram-negative (Proteobacteria) organisms; conditions: all tested Gram-negatives, result in words
[15] = tested on: fungal strains; experiment: Growth inhibition, panel of fungal strains; conditions: result in words
[16] = microbroth dilution, 37° C. 12 h
[17] = microbroth dilution, 30° C. 36 h

C=C1NC(=O)CNC(=O)[C@H](CCCCN)NC(=O)[C@@]2(C)NC(=O)/C(=C/C)NC(=O)[C@@H]3CSC(=N3)[C@H](CC(N)=O)NC(=O)c3ccc(nc3[C@@H](C)NC(=O)[C@@H]3CCCN3C1=O)-c1nc(cs1)C1=N[C@@H](CS1)C(=O)NC(=C)c1nc(cs1)-c1nc(cs1)C1=N[C@H](CS1)C(=O)N[C@H](C(=O)O)CS2 [cyclothiazomycin C]
MIC ([1]; 12 h): 1 µg/mL (≈ 0.673 µM) | MIC ([2]; 168, 37° C. 12 h, read-out: MIC): 4 µg/mL (≈ 2.69 µM) | MIC ([3]; 12 h): 32 to 64 µg/mL (≈ 21.5 to 43 µM) | MIC ([4]; 4BF2365, 37° C. 12 h, read-out: MIC): 16 µg/mL (≈ 10.8 µM) | MIC ([5]; USA300, 12 h): 16 µg/mL (≈ 10.8 µM) | MIC ([6]; MC4100, Escherichia coli, read-out: MIC): > 64 µg/mL | MIC ([7]; ATCC29256, 37° C. 12 h, read-out: MIC): > 64 µg/mL | MIC ([8]; KT2440, 37° C. 12 h, read-out: MIC): > 64 µg/mL | MIC ([9]; 36 h): > 64 µg/mL | MIC ([10]; 60 h): > 64 µg/mL | MIC ([11]; 36 h): > 64 µg/mL | MIC ([12]; 36 h): > 64 µg/mL | growth inhibitory action toward Gram-positive (Firmicutes) bacteria [13]: exhibited growth inhibitory action | activity against Gram-negative (Proteobacteria) organisms [14]: inactive | growth inhibitory action toward fungal strains [15]: none was observed

cyclothiazomycin B [reference compound]
MIC [1, 16]: 1 µg/mL | MIC ([2]; 37° C. 12 h): 2 µg/mL | MIC [3, 16]: 32 µg/mL | MIC ([4]; 37° C. 12 h): 8 µg/mL | MIC [5, 16]: 4 µg/mL | MIC ([6]; Escherichia coli): 64 µg/mL | MIC ([7]; 37° C. 12 h): >64 µg/mL | MIC ([8]; 37° C. 12 h): >64 µg/mL | MIC [9, 17]: >64 µg/mL | MIC ([10]; microbroth dilution, 30° C. 60 h): 64 µg/mL | MIC [11, 17]: 64 µg/mL | MIC [12, 17]: 64 µg/mL | activity against Gram-negative (Proteobacteria) organisms [14]: little to no activity | growth inhibitory action toward fungal strains [15]: little to no activity
